# Assays:
# A-549 = assay: cells; settings: Homo sapiens, A549, 48 h; for GI50: read-out: A549 GI50; for CC50: read-out: A549 LC50; for IC (TGI): read-out: A549 TGI
# Method in brief: (§1)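 Colorimetric SRB read (490 nm) on triplicate wells after 48 h at 37 °C, 5% CO2. Dose range 10 to 10^−8 μg/ml; 5×10^3 cells/well pre-attached 18 h.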
# HT-29 = assay: cells; settings: Homo sapiens, HT-29, 48 h; for GI50: read-out: HT29 GI50; for CC50: read-out: HT29 LC50; for IC (TGI): read-out: HT29 TGI
# Method in brief: as §1
# LoVo = assay: cells; settings: Homo sapiens, LoVo, 48 h; for GI50: read-out: LOVO GI50; for CC50: read-out: LOVO LC50; for IC (TGI): read-out: LOVO TGI
# Method in brief: as §1
# DU-145 = assay: Inhibition of cells growth by colorimetric assay (SRB); settings: Homo sapiens, DU-145, 48 h; for GI50: read-out: DU145 GI50; for CC50: read-out: DU145 LC50; for IC (TGI): read-out: DU145 TGI
# Method in brief: as §1
# HeLa-APL = assay: as above; settings: Homo sapiens, 48 h; for GI50: read-out: HELA-APL GI50; for CC50: read-out: HELA-APL LC50; for IC (TGI): read-out: HELA-APL TGI
# Method in brief: as §1
# HeLa = assay: as above; settings: Homo sapiens, HeLa, 48 h; for GI50: read-out: HELA GI50; for CC50: read-out: HELA LC50; for IC (TGI): read-out: HELA TGI
# Method in brief: as §1
# IGROV-1 = assay: as above; settings: Homo sapiens, IGROV-1, 48 h; for GI50: read-out: IGROV GI50; for CC50: read-out: IGROV LC50; for IC (TGI): read-out: IGROV TGI
# Method in brief: as §1
# IGROV-ET = assay: as above; settings: Homo sapiens, 48 h; for GI50: read-out: IGROV-ET GI50; for CC50: read-out: IGROV-ET LC50; for IC (TGI): read-out: IGROV-ET TGI
# Method in brief: as §1
# K-562 = assay: as above; settings: Homo sapiens, K562, 48 h; for GI50: read-out: K562 GI50; for CC50: read-out: K562 LC50; for IC (TGI): read-out: K562 TGI
# Method in brief: as §1
# LNCaP = assay: as above; settings: Homo sapiens, LNCaP, 48 h; for GI50: read-out: LNCAP GI50; for CC50: read-out: LNCAP LC50; for IC (TGI): read-out: LNCAP TGI
# Method in brief: as §1
# LoVo-Dox = assay: as above; settings: Homo sapiens, 48 h; for GI50: read-out: LOVO-DOX GI50; for CC50: read-out: LOVO-DOX LC50; for IC (TGI): read-out: LOVO-DOX TGI
# Method in brief: as §1
# PANC-1 = assay: as above; settings: Homo sapiens, PANC-1, 48 h; for GI50: read-out: PANC-1 GI50; for CC50: read-out: PANC-1 LC50; for IC (TGI): read-out: PANC-1 TGI
# Method in brief: as §1
# SK-BR-3 = assay: as above; settings: Homo sapiens, SK-BR-3, 48 h; for GI50: read-out: SK-BR3 GI50; for CC50: read-out: SK-BR3 LC50; for IC (TGI): read-out: SK-BR3 TGI
# Method in brief: as §1
# SK-MEL-28 = assay: as above; settings: Homo sapiens, SK-MEL-28, 48 h; for GI50: read-out: MEL-28 GI50; for CC50: read-out: MEL-28 LC50; for IC (TGI): read-out: MEL-28 TGI
# Method in brief: as §1
structure (smiles),measurement,setting,value
CCCCCCCC(=O)Oc1c(C)c2c(c3c1[C@H]1SC[C@]4(NCCc5cc(O)c(OC)cc54)C(=O)OC[C@@H]3N3C1[C@@H]1N[C@@H](Cc4cc(C)c(OC)c(O)c41)[C@@H]3O)OCO2 (stereo partly drawn) [compound 54],GI50,A-549,20.2 nM
same,CC50,A-549,636 nM
same,IC (TGI),A-549,66.3 nM
same,GI50,HT-29,29.9 nM
same,CC50,HT-29,12000 nM
same,IC (TGI),HT-29,123 nM
same,GI50,LoVo,3.85 nM
same,CC50,LoVo,12000 nM
same,IC (TGI),LoVo,14.4 nM
same,GI50,DU-145,3.76 nM
same,CC50,DU-145,12000 nM
same,IC (TGI),DU-145,22 nM
same,GI50,HeLa-APL,13.3 nM
same,CC50,HeLa-APL,459 nM
same,IC (TGI),HeLa-APL,143 nM
same,GI50,HeLa,21.9 nM
same,CC50,HeLa,376 nM
same,IC (TGI),HeLa,64.1 nM
same,GI50,IGROV-1,6.56 nM
same,CC50,IGROV-1,3370 nM
same,IC (TGI),IGROV-1,39.4 nM
same,GI50,IGROV-ET,37 nM
same,CC50,IGROV-ET,12000 nM
same,IC (TGI),IGROV-ET,120 nM
same,GI50,K-562,1.88 nM
same,CC50,K-562,2700 nM
same,IC (TGI),K-562,5.18 nM
same,GI50,LNCaP,7.42 nM
same,CC50,LNCaP,109 nM
same,IC (TGI),LNCaP,29.3 nM
same,GI50,LoVo-Dox,338 nM
same,CC50,LoVo-Dox,12000 nM
same,IC (TGI),LoVo-Dox,12000 nM
same,GI50,PANC-1,23 nM
same,CC50,PANC-1,5310 nM
same,IC (TGI),PANC-1,64.8 nM
same,GI50,SK-BR-3,12.7 nM
same,CC50,SK-BR-3,12000 nM
same,IC (TGI),SK-BR-3,154 nM
same,GI50,SK-MEL-28,15.5 nM
same,CC50,SK-MEL-28,83.9 nM
same,IC (TGI),SK-MEL-28,36.1 nM
COc1c(C)cc2c(c1O)[C@H]1N[C@@H](C2)[C@H](C#N)N2C1[C@@H]1SC[C@]3(NCCc4c3[nH]c3ccc(O)cc43)C(=O)OC[C@H]2c2c3c(c(C)c(OC(C)=O)c21)OCO3 (stereo partly drawn) [compound 61],GI50,A-549,24.3 nM
same,CC50,A-549,104 nM
same,IC (TGI),A-549,50.1 nM
same,GI50,HT-29,6.58 nM
same,CC50,HT-29,13100 nM
same,IC (TGI),HT-29,1400 nM
same,GI50,LoVo,17.1 nM
same,CC50,LoVo,8230 nM
same,IC (TGI),LoVo,70.9 nM
same,GI50,DU-145,5.14 nM
same,CC50,DU-145,7970 nM
same,IC (TGI),DU-145,9.34 nM
same,GI50,HeLa-APL,2.98 nM
same,CC50,HeLa-APL,10.5 nM
same,IC (TGI),HeLa-APL,5.6 nM
same,GI50,HeLa,3.56 nM
same,CC50,HeLa,11.8 nM
same,IC (TGI),HeLa,6.49 nM
same,GI50,IGROV-1,4.82 nM
same,CC50,IGROV-1,525 nM
same,IC (TGI),IGROV-1,9.64 nM
same,GI50,IGROV-ET,225 nM
same,CC50,IGROV-ET,4770 nM
same,IC (TGI),IGROV-ET,712 nM
same,GI50,K-562,2.56 nM
same,CC50,K-562,642 nM
same,IC (TGI),K-562,8.62 nM
same,GI50,LNCaP,1.17 nM
same,CC50,LNCaP,6.92 nM
same,IC (TGI),LNCaP,2.94 nM
same,GI50,LoVo-Dox,495 nM
same,CC50,LoVo-Dox,13100 nM
same,IC (TGI),LoVo-Dox,1760 nM
same,GI50,PANC-1,4.69 nM
same,CC50,PANC-1,13100 nM
same,IC (TGI),PANC-1,15.4 nM
same,GI50,SK-BR-3,4.28 nM
same,CC50,SK-BR-3,245 nM
same,IC (TGI),SK-BR-3,9 nM
same,GI50,SK-MEL-28,6.19 nM
same,CC50,SK-MEL-28,60.7 nM
same,IC (TGI),SK-MEL-28,18.8 nM

# — patent US7767659B2, “Synthesis of naturally occurring ecteinascidins and related compounds” (Pharma Mar, S.A., priority 2002, dated 2010)
